Reference: patent publication US20250041310A1, “Combination Therapy Comprising A2A/A2B and PD-1/PD-L1 Inhibitors” (Incyte Corporation, priority 2020, published 2025)
pEC50, pKi: −log10 of the molar value. Like-named read-outs stand apart in the source and are kept apart here.

Assays:
[1] = molecular target: Adenosine A2A Receptor (Homo sapiens (Human), UniProt P29274); assay: A2A Tag-lite HTRF Assay; type: binding; conditions: Tag-lite A2A labeled cells, fluorescent ligand 12.5 nM; read-out: A2A_Ki
Description: Test compounds were first serially diluted in DMSO and 100 nl added to the plate wells before the addition of other reaction components. The final concentration of DMSO was 1%. Tag-lite® Adenosine A2A labeled cells (CisBio C1TT1A2A) were diluted 1:5 into Tag-lite buffer (CisBio LABMED) and spun 1200 g for 5 mins.

[2] = molecular target: human adenosine A2B receptor (Homo sapiens (Human), UniProt P29275); assay: Adenosine A2B Receptor cyclic AMP GS Assay; type: cell-based
Description: Stably transfected HEK-293 cells expressing the human adenosine A2B receptor (Perkin Elmer) were maintained in MEM culture medium with 10% FBS and 100 μg/ml Geneticin (Life Technologies). 18 to 24 hours prior to assay, geneticin was removed from culture. The cisbio cAMP-GS Dynamic kit utilizing the FRET (Fluorescence Resonance Energy Transfer) technology was used to measure cAMP accumulation in the cells. Compounds of the present disclosure at an appropriate concentration were mixed with 10000 cells/well in white 96 well half area plates (Perkin Elmer) for 30 min at RT gently shaking. […] Detection reagents, d2-labeled cAMP (acceptor) and anti-cAMP cryptate (donor) were added to each well for 60 min at RT gently shaking.

[3] = system: PBMC from healthy donors stimulated by CD3 antibody; assay: In vitro Mixed Lineage Reaction assay (MLR); type: cell-based; conditions: for effect of combination with atezolizumab: PBMC stimulated with CD3 antibody, FIGS. 2A-2D; for IFNγ production: combined with anti-PD-L1 antibody atezolizumab, 1 μM NECA, CD3 antibody, 4 days
Description: On day 0, 10,000 PBMCs from a healthy donor was co-cultured with 10,000 γ-radiated PBMCs from another healthy donor. […] Cells were incubated at 37° C. for 4 days. IFN-γ in the supernatant of each well was measured by a HTRF kit (Cisbio, 62[…]) and the fluorescent signal was detected on a Pherastar FS plate reader (BMG Labtech) on day 4.

[4] = system: primary T cells co-cultured with CHO-PD-L1 cells; conditions: 2 μM NECA
Description: In vitro the CHO-PD-L1 co-culture assay, T cells were treated in the presence of 20 CHO-PD-L1 cells with PD-1 antibody, and using 5′-N-ethylcarboxamide adenosine (NECA), an adenosine-mimicking reagent, to activate adenosine signaling.
Day 0, plate 10,000 CHO PDL1+ cells in Plate 96 Tissue Culture Flat Bottom plate in 100 ul of CHO Media without antibiotics. On day 1, T Cells were thawed and resuspended in T cell media at 1×10^6 cells/ml. Media was removed from the CHO PDL1+ cells plates and 130 ul of T cell media was added. T cell media at 198 ul was added onto the compound plates at 2 ul, or −1:100 dilution and then re-suspended. 20 ul of compounds from the compound plates were added onto the CHO cell plates at a final dilution of compounds at 1:1000. 50 ul of T cells (50,000 cells) were added onto the plates with CHO cells to make a total of 200 ul volume and incubation was carried out at 37° C. for 72 hrs. After 3 days in culture, the supernatant was collected for an hIFNg and hIL2 cytokine assay run using ProCartaplex 2 plex kits (Life Technologies Cat #PPX-02) for hIFNg and hIL2 (Manufacturer's Protocol). The cytokine assay using ProCartaplex kits are run on a Flex Map 3D Luminex multiplexing platform.

[5] = system: CT-26 murine colon carcinoma hosted in NSG mice; assay: In vivo efficacy study, CT-26 NSG xenograft model; parameters: species or system mouse; conditions: 10 mg/kg BID, CT-26 in NSG mice lacking T and NK cells
[6] = system: B16 melanoma; assay: In vivo efficacy study, B16 syngeneic melanoma model; parameters: species or system mouse; conditions: Compound 9 10 mg/kg BID combined with anti-PD-L1
[7] = HEK-293 cells, agonist NECA 12 nM, read-out: A2B_cAMP_EC50

Chain of Adenosine A2A Receptor (P29274 whole entry): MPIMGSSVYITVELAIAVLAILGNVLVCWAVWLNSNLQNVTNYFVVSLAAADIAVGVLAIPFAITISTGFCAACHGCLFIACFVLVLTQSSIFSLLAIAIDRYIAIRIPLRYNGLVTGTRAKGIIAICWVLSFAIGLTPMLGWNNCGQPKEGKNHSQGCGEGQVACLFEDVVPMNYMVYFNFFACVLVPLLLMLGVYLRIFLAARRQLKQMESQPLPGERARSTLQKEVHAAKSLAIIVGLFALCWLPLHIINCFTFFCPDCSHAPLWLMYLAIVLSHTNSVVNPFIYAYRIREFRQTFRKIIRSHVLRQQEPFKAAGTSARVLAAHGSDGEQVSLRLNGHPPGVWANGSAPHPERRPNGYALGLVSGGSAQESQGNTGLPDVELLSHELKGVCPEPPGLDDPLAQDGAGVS
Chain of human adenosine A2B receptor (P29275 whole entry): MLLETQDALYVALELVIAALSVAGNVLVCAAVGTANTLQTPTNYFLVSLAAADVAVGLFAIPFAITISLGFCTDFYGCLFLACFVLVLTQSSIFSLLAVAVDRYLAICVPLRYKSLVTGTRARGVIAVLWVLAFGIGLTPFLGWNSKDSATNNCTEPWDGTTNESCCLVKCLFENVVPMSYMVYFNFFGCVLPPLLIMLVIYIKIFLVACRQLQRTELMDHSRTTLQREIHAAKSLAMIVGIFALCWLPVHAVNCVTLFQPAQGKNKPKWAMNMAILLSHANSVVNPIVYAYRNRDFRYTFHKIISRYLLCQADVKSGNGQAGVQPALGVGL

SMILES	pKi [1]	pEC50 [2, 7]	further results
N#Cc1cccc(-c2nc(N)c3nc(C(O)c4c(F)cccc4F)nn3c2-c2ccncn2)c1 (single isomer, unassigned) [Compound 10, 3-(8-Amino-2-((2,6-difluorophenyl)(hydroxy)methyl)-5-(pyrimidin-4-yl)-[1,2,4]triazolo[1,5-a]pyrazin-6-yl)benzonitrile]	> 8.00	–	pEC50 [2]: > 8.00
Cc1cc(-c2c(-c3cccc(C#N)c3)nc(N)c3nc(C(O)c4c(F)cccc4F)nn23)cc(C)n1 (single isomer, unassigned) [Compound 12, 3-(8-amino-2-((2,6-difluorophenyl)(hydroxy)methyl)-5-(2,6-dimethylpyridin-4-yl)-[1,2,4]triazolo[1,5-a]pyrazin-6-yl)benzonitrile]	> 8.00	–	pEC50 [2]: 7.00 to 8.00
N#Cc1cccc(-c2nc(N)n3nc(Cc4ccccn4)nc3c2-c2ccncn2)c1 [Compound 1, 3-(5-Amino-2-(pyridin-2-ylmethyl)-8-(pyrimidin-4-yl)-[1,2,4]triazolo[1,5-c]pyrimidin-7-yl)benzonitrile]	> 8.00	–	–
N#Cc1cccc(-c2nc(N)n3nc(C(O)c4c(F)cccc4F)nc3c2-c2ccncn2)c1 (stereo not drawn) [Compound 2, 3-(5-Amino-2-((2,6-difluorophenyl)(hydroxy)methyl)-8-(pyrimidin-4-yl)-[1,2,4]triazolo[1,5-c]pyrimidin-7-yl)benzonitrile]	> 8.00	> 8.00	–
N#Cc1cccc(-c2nc(N)n3nc(Cn4nnc(-c5ccccn5)n4)nc3c2-c2ccncn2)c1 [Compound 3A, 3-(5-amino-2-((5-(pyridin-2-yl)-2H-tetrazol-2-yl)methyl)-8-(pyrimidin-4-yl)-[1,2,4]triazolo[1,5-c]pyrimidin-7-yl)benzonitrile]	–	–	effect of combination with atezolizumab [3]: synergistic effect; IFNγ production [3]: increase IFNγ production significantly
N#Cc1cccc(-c2nc(N)n3nc(Cn4nnc(-c5ccccn5)n4)nc3c2-c2ccncn2)c1 [Compound 3]	> 8.00	> 8.00	–
Cc1cccnc1COc1nc2c(-c3ccncn3)c(-c3cccc(C#N)c3)nc(N)n2n1 [Compound 4, 3-(5-Amino-2-((3-methylpyridin-2-yl)methoxy)-8-(pyrimidin-4-yl)-[1,2,4]triazolo[1,5-c]pyrimidin-7-yl)benzonitrile]	> 8.00	–	–
N#Cc1cccc(-c2cc3nc(C(O)c4ccccc4)nn3c(N)n2)c1 (stereo not drawn) [Compound 5, 3-(5-Amino-2-(hydroxy(phenyl)methyl)-[1,2,4]triazolo[1,5-c]pyrimidin-7-yl)benzonitrile]	> 8.00	–	–
N#Cc1cccc(-c2cc3nc(C(O)c4c(F)cccc4F)nn3c(N)n2)c1F (stereo not drawn) [Compound 6, 3-(5-Amino-2-((2,6-difluorophenyl)(hydroxy)methyl)-[1,2,4]triazolo[1,5-c]pyrimidin-7-yl)-2-fluorobenzonitrile]	> 8.00	–	–
N#Cc1cccc(-c2nc(N)n3nc(C(O)c4c(F)cccc4F)nc3c2C#N)c1F (stereo not drawn) [Compound 7, 5-Amino-7-(3-cyano-2-fluorophenyl)-2-((2,6-difluorophenyl)(hydroxy)methyl)-[1,2,4]triazolo[1,5-c]pyrimidine-8-carbonitrile]	> 8.00	–	–
CN1CCC(NCc2cccc(F)c2C(O)c2nc3cc(-c4cccc(C#N)c4F)nc(N)n3n2)C1=O (stereo not drawn) [Compound 8, 3-(5-Amino-2-((2-fluoro-6-(((1-methyl-2-oxopyrrolidin-3-yl)amino)methyl)phenyl)(hydroxy)methyl)-[1,2,4]triazolo[1,5-c]pyrimidin-7-yl)-2-fluorobenzonitrile]	> 8.00	–	–
Cn1nc(-c2c(-c3cccc(C#N)c3)nc(N)c3nc(Cc4ccccn4)nn23)ccc1=O [Compound 9, 3-(8-Amino-5-(1-methyl-6-oxo-1,6-dihydropyridazin-3-yl)-2-(pyridin-2-ylmethyl)-[1,2,4]triazolo[1,5-a]pyrazin-6-yl)benzonitrile]	> 8.00	–	effect of combination with pembrolizumab ([4]; FIG. 1A): synergistic effect; effect of combination with Antibody X ([4]; FIG. 1B): synergistic effect; effect of combination with Compound Y ([4]; FIG. 1C): synergistic effect; effect of combination with atezolizumab [3]: synergistic effect; IFNγ production [3]: increase IFNγ production significantly; single agent efficacy [5]: no single agent efficacy; tumor growth inhibition [6]: 54%
Cc1ncoc1-c1c(-c2cccc(C#N)c2)nc(N)c2nc(C(N)c3c(F)cccc3F)nn12 (stereo not drawn) [Compound 11, 3-(8-amino-2-(amino(2,6-difluorophenyl)methyl)-5-(4-methyloxazol-5-yl)-[1,2,4]triazolo[1,5-a]pyrazin-6-yl)benzonitrile]	> 8.00	–	–
N#Cc1cccc(-c2nc(N)c3nn(Cc4ccccn4)nc3c2-c2ccncn2)c1 [Compound 13, 3-(4-amino-2-(pyridin-2-ylmethyl)-7-(pyrimidin-4-yl)-2H-[1,2,3]triazolo[4,5-c]pyridin-6-yl)benzonitrile]	> 8.00	> 8.00	–
N#Cc1cccc(-c2nc(N)c3nn(Cc4ncccc4F)nc3c2-c2ccncn2)c1 [Compound 14, 3-(4-amino-2-((3-fluoropyridin-2-yl)methyl)-7-(pyrimidin-4-yl)-2H-[1,2,3]triazolo[4,5-c]pyridin-6-yl)benzonitrile]	> 8.00	> 8.00	–
N#Cc1cccc(-c2nc(N)c3nn(Cc4ncccc4F)nc3c2-c2ccncc2)c1 [Compound 15, 3-(4-amino-2-((3-fluoropyridin-2-yl)methyl)-7-(pyridin-4-yl)-2H-[1,2,3]triazolo[4,5-c]pyridin-6-yl)benzonitrile]	> 8.00	> 8.00	–
Cn1nccc1-c1c(-c2cccc(C#N)c2F)nc(N)c2nn(Cc3ccccn3)nc12 [Compound 16, 3-(4-amino-7-(1-methyl-1H-pyrazol-5-yl)-2-(pyridin-2-ylmethyl)-2H-[1,2,3]triazolo[4,5-c]pyridin-6-yl)-2-fluorobenzonitrile]	> 8.00	> 8.00	–
CCCCCn1c2cc(-c3cnn(Cc4cncc(Cl)c4)c3)[nH]c2c(=O)n2c(C)nnc12 [Compound 17, 7-(1-((5-Chloropyridin-3-yl)methyl)-1H-pyrazol-4-yl)-3-methyl-9-pentyl-6,9-dihydro-5H-pyrrolo[3,2-d][1,2,4]triazolo[4,3-a]pyrimidin-5-one]	> 8.00	–	–
CCCCCn1c2cc(-c3cnn(Cc4cncc(C)c4)c3)[nH]c2c(=O)n2c(C)nnc12 [Compound 18, 3-Methyl-7-(1-((5-methylpyridin-3-yl)methyl)-1H-pyrazol-4-yl)-9-pentyl-6,9-dihydro-5H-pyrrolo[3,2-d][1,2,4]triazolo[4,3-a]pyrimidin-5-one]	> 8.00	–	–
CCCCCn1c2cc(-c3cnn(Cc4cnc5ccsc5c4)c3)[nH]c2c(=O)n2c(C)nnc12 [Compound 19, 3-Methyl-9-pentyl-7-(1-(thieno[3,2-b]pyridin-6-ylmethyl)-1H-pyrazol-4-yl)-6,9-dihydro-5H-pyrrolo[3,2-d][1,2,4]triazolo[4,3-a]pyrimidin-5-one]	> 8.00	–	–
CCCCCn1c2cc(-c3cnn(Cc4ccc5c(c4)CCN(C(=O)CN(C)C)C5)c3)[nH]c2c(=O)n2c(C)nnc12 [Compound 20, 7-(1-((2-(2-(Dimethylamino)acetyl)-1,2,3,4-tetrahydroisoquinolin-6-yl)methyl)-1H-pyrazol-4-yl)-3-methyl-9-pentyl-6,9-dihydro-5H-pyrrolo[3,2-d][1,2,4]triazolo[4,3-a]pyrimidin-5-one]	> 8.00	–	–
N#Cc1cccc(-c2nc(N)n3nc(Cn4nnc(-n5cccn5)n4)nc3c2-c2ccncn2)c1 [Compound 21]	> 8.00	> 8.00	–
